Reference: ChEMBL document CHEMBL4507301 (2021)

Experiments:
[1] = target: Mitogen-activated protein kinase kinase kinase 20 (Homo sapiens) (UniProt Q9NYL2); details: Compound concentration 1000.0 nM
[2] = test system: Tyrosine-protein kinase ABL1 (Homo sapiens), P00519 [H396P]; details: Compound concentration 1000.0 nM
[3] = test system: Epidermal growth factor receptor (Homo sapiens), P00533 [UNDEFINED MUTATION]; details: Compound concentration 1000.0 nM
[4] = test system: Proto-oncogene tyrosine-protein kinase receptor Ret (Homo sapiens), P07949 [V804L]; details: Compound concentration 1000.0 nM
[5] = target: Tyrosine-protein kinase Mer (Homo sapiens) (UniProt Q12866); details: Compound concentration 1000.0 nM
[6] = target: Death-associated protein kinase 2 (Homo sapiens) (UniProt Q9UIK4); details: Compound concentration 1000.0 nM
[7] = target: Dual specificity mitogen-activated protein kinase kinase 7 (Homo sapiens) (UniProt O14733); details: Compound concentration 1000.0 nM
[8] = target: SRSF protein kinase 1 (Homo sapiens) (UniProt Q96SB4); details: Compound concentration 1000.0 nM
[9] = target: Homeodomain-interacting protein kinase 2 (Homo sapiens) (UniProt Q9H2X6); details: Compound concentration 1000.0 nM
[10] = target: Phosphatidylinositol 4-phosphate 5-kinase type-1 alpha (Homo sapiens) (UniProt Q99755); details: Compound concentration 1000.0 nM
[11] = test system: Phosphatidylinositol 4,5-bisphosphate 3-kinase catalytic subunit alpha isoform (Homo sapiens), P42336 [E545A]; details: Compound concentration 1000.0 nM
[12] = target: Serine/threonine-protein kinase Nek7 (Homo sapiens) (UniProt Q8TDX7); details: Compound concentration 1000.0 nM
[13] = target: Serine/threonine-protein kinase 38 (Homo sapiens) (UniProt Q15208); details: Compound concentration 1000.0 nM
[14] = target: 5-hydroxytryptamine receptor 2B (Homo sapiens) (UniProt P41595); details: Compound concentration 10.0 uM
[15] = target: TRAF2 and NCK-interacting protein kinase (Homo sapiens) (UniProt Q9UKE5); details: Compound concentration 1000.0 nM
[16] = target: Aurora kinase B (Homo sapiens) (UniProt Q96GD4); details: Compound concentration 1000.0 nM
[17] = target: Ephrin type-B receptor 3 (Homo sapiens) (UniProt P54753); details: Compound concentration 1000.0 nM
[18] = target: Discoidin domain-containing receptor 2 (Homo sapiens) (UniProt Q16832); details: Compound concentration 1000.0 nM
[19] = target: SRSF protein kinase 2 (Homo sapiens) (UniProt P78362); details: Compound concentration 1000.0 nM
[20] = test system: Leucine-rich repeat serine/threonine-protein kinase 2 (Homo sapiens), Q5S007 [G2019S]; details: Compound concentration 1000.0 nM
[21] = target: Delta-type opioid receptor (Homo sapiens) (UniProt P41143); details: Compound concentration 10.0 uM
[22] = target: Serine/threonine-protein kinase BRSK2 (Homo sapiens) (UniProt Q8IWQ3); details: Compound concentration 1000.0 nM
[23] = target: Serine/threonine-protein kinase MRCK alpha (Homo sapiens) (UniProt Q5VT25); details: Compound concentration 1000.0 nM
[24] = target: Protein-tyrosine kinase 2-beta (Homo sapiens) (UniProt Q14289); details: Compound concentration 1000.0 nM
[25] = test system: Mast/stem cell growth factor receptor Kit (Homo sapiens), P10721 [V559D]; details: Compound concentration 1000.0 nM
[26] = target: MAP/microtubule affinity-regulating kinase 3 (Homo sapiens) (UniProt P27448); details: Compound concentration 1000.0 nM
[27] = target: Serine/threonine-protein kinase Sgk3 (Homo sapiens) (UniProt Q96BR1); details: Compound concentration 1000.0 nM
[28] = target: Serine/threonine-protein kinase BRSK1 (Homo sapiens) (UniProt Q8TDC3); details: Compound concentration 1000.0 nM
[29] = target: Homeodomain-interacting protein kinase 1 (Homo sapiens) (UniProt Q86Z02); details: Compound concentration 1000.0 nM
[30] = target: Serine/threonine-protein kinase 26 (Homo sapiens) (UniProt Q9P289); details: Compound concentration 1000.0 nM
[31] = target: Protein kinase C iota type (Homo sapiens) (UniProt P41743); details: Compound concentration 1000.0 nM
[32] = target: Hepatocyte growth factor receptor (Homo sapiens) (UniProt P08581); details: Compound concentration 1000.0 nM
[33] = target: Serine/threonine-protein kinase LATS1 (Homo sapiens) (UniProt O95835); details: Compound concentration 1000.0 nM
[34] = target: Tyrosine-protein kinase BTK (Homo sapiens) (UniProt Q06187); details: Compound concentration 1000.0 nM
[35] = target: Histamine H1 receptor (Homo sapiens) (UniProt P35367); details: Compound concentration 10.0 uM
[36] = target: Calcium/calmodulin-dependent protein kinase type 1 (Homo sapiens) (UniProt Q14012); details: Compound concentration 1000.0 nM
[37] = target: Tyrosine-protein kinase TXK (Homo sapiens) (UniProt P42681); details: Compound concentration 1000.0 nM
[38] = test system: Mast/stem cell growth factor receptor Kit (Homo sapiens), P10721 [V559D,T670I]; details: Compound concentration 1000.0 nM
[39] = target: Serine/threonine-protein kinase PAK 2 (Homo sapiens) (UniProt Q13177); details: Compound concentration 1000.0 nM
[40] = target: Serine/threonine-protein kinase Sgk2 (Homo sapiens) (UniProt Q9HBY8); details: Compound concentration 1000.0 nM
[41] = target: Focal adhesion kinase 1 (Homo sapiens) (UniProt Q05397); details: Compound concentration 1000.0 nM
[42] = target: Cytoplasmic tyrosine-protein kinase BMX (Homo sapiens) (UniProt P51813); details: Compound concentration 1000.0 nM
[43] = target: Proto-oncogene tyrosine-protein kinase ROS (Homo sapiens) (UniProt P08922); details: Compound concentration 1000.0 nM
[44] = target: RAF proto-oncogene serine/threonine-protein kinase (Homo sapiens) (UniProt P04049); details: Compound concentration 1000.0 nM
[45] = target: Wee1-like protein kinase (Homo sapiens) (UniProt P30291); details: Compound concentration 1000.0 nM

Sequence of Mast/stem cell growth factor receptor Kit (Homo sapiens), P10721 [V559D] (P10721 whole entry V559D): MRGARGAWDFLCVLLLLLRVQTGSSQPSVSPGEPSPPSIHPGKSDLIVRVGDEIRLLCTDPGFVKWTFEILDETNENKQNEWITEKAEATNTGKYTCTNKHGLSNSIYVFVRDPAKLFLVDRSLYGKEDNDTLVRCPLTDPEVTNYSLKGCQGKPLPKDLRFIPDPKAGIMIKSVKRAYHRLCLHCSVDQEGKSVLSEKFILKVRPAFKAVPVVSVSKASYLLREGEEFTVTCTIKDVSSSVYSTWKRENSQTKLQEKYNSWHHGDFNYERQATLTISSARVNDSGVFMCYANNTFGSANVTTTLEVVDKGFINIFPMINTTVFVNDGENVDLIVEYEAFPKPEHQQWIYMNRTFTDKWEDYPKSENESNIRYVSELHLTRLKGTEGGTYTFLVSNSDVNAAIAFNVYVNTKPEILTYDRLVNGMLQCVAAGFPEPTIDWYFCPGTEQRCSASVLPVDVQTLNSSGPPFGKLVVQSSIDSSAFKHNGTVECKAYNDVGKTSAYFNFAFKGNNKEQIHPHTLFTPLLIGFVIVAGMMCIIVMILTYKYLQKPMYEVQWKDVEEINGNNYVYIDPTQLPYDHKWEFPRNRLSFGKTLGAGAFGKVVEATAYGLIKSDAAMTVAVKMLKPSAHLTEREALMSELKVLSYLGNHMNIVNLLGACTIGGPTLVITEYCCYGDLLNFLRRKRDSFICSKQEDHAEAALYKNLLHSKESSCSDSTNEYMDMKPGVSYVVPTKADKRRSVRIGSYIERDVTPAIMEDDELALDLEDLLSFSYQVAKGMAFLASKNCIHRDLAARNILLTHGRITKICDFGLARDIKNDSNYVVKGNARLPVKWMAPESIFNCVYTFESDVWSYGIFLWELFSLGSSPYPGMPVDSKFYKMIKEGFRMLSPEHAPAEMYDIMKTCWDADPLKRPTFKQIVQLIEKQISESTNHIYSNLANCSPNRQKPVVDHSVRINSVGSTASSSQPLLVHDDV
Sequence of 5-hydroxytryptamine receptor 2B (Homo sapiens) (P41595 whole entry): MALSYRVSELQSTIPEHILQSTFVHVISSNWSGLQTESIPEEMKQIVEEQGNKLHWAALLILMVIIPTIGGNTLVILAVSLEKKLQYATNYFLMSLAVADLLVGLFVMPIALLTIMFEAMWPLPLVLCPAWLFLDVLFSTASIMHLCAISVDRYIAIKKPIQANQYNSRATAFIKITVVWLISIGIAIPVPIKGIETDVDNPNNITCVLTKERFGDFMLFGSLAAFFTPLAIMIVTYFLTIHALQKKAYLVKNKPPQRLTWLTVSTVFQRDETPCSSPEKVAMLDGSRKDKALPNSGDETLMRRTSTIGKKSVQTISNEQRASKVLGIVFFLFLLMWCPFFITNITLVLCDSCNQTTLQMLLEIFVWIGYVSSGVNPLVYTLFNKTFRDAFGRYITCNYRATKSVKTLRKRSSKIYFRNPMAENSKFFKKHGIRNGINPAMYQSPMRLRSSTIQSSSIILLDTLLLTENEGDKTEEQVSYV
Sequence of Proto-oncogene tyrosine-protein kinase ROS (Homo sapiens) (P08922 whole entry): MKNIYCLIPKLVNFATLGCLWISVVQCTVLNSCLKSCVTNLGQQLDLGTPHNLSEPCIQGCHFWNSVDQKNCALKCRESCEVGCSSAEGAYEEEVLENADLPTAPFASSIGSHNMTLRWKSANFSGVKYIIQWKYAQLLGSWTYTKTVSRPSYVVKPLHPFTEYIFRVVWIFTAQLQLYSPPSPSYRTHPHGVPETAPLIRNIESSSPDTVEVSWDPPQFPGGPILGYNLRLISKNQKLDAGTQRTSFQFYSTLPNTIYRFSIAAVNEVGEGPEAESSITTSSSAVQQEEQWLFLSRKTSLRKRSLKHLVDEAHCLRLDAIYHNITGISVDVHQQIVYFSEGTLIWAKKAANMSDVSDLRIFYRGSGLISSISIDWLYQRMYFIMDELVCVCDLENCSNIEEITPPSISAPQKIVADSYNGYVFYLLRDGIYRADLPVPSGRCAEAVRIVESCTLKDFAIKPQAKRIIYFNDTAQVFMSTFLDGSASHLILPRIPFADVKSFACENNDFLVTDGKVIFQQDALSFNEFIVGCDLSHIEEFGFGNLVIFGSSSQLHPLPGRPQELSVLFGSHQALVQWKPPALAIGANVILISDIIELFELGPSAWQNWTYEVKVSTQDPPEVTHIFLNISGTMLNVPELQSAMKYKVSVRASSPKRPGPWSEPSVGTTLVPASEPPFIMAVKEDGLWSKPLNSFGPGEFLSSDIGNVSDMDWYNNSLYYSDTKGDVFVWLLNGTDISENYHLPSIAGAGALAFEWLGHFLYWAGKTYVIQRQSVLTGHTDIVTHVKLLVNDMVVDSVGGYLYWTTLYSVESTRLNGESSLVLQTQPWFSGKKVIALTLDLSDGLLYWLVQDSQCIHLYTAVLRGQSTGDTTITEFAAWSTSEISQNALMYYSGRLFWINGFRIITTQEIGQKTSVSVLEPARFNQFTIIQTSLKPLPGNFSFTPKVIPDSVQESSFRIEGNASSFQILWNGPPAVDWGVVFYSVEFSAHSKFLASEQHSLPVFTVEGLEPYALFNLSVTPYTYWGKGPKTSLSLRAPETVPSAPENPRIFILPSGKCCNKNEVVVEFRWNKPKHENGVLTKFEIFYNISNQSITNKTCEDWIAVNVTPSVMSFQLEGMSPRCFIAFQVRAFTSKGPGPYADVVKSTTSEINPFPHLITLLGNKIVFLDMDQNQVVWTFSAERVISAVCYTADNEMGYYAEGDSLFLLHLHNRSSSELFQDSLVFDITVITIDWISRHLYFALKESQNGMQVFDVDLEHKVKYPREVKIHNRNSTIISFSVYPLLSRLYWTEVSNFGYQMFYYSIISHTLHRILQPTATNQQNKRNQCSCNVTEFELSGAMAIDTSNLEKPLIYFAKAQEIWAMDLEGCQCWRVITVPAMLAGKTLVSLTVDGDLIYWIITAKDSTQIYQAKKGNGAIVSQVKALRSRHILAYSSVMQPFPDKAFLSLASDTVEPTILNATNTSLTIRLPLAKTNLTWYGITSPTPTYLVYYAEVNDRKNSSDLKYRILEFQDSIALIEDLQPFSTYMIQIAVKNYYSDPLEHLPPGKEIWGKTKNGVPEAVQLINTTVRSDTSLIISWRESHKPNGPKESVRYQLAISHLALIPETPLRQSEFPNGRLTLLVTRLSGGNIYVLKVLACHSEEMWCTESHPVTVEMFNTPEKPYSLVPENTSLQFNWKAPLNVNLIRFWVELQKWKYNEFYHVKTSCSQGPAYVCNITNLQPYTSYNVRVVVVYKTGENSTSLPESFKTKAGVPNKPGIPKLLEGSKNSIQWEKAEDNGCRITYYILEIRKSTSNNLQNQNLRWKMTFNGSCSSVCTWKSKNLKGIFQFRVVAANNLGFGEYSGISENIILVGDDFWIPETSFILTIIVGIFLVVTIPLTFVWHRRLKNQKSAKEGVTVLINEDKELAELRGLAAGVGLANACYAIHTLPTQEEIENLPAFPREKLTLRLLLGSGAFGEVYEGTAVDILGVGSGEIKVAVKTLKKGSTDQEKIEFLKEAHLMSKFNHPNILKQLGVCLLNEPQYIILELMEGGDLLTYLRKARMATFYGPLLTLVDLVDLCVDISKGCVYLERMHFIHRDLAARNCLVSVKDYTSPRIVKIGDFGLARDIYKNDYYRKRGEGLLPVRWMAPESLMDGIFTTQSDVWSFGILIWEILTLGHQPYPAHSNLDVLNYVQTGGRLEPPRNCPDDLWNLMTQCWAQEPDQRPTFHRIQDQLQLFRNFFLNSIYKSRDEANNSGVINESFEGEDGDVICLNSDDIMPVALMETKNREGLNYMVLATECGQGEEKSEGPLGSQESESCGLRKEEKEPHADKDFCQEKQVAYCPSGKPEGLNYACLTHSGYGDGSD
Sequence of Calcium/calmodulin-dependent protein kinase type 1 (Homo sapiens) (Q14012 whole entry, looked up): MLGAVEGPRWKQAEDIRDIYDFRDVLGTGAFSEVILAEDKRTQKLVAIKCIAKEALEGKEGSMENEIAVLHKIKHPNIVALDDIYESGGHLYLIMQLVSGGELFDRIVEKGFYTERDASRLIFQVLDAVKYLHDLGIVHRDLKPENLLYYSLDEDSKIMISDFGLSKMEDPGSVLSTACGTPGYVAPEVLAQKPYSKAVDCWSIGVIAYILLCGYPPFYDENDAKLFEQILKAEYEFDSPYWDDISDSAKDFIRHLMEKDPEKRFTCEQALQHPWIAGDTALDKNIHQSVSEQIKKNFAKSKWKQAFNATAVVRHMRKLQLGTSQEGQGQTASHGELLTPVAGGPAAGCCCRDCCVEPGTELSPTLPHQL
Sequence of Dual specificity mitogen-activated protein kinase kinase 7 (Homo sapiens) (O14733 whole entry): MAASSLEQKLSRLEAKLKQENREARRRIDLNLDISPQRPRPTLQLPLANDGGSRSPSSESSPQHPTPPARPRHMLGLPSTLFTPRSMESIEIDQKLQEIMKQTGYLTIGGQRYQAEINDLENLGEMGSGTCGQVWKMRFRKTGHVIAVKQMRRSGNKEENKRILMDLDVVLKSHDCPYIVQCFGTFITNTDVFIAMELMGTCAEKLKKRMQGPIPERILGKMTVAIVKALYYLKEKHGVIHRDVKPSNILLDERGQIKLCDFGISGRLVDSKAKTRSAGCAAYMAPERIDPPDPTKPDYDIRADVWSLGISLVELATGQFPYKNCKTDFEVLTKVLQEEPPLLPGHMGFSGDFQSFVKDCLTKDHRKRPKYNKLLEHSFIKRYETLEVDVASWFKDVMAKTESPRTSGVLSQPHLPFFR
Sequence of Mast/stem cell growth factor receptor Kit (Homo sapiens), P10721 [V559D,T670I] (P10721 whole entry V559D/T670I): as the sequence (P10721 whole entry V559D) above, with T670I counted along it
Sequence of Death-associated protein kinase 2 (Homo sapiens) (Q9UIK4 whole entry, looked up): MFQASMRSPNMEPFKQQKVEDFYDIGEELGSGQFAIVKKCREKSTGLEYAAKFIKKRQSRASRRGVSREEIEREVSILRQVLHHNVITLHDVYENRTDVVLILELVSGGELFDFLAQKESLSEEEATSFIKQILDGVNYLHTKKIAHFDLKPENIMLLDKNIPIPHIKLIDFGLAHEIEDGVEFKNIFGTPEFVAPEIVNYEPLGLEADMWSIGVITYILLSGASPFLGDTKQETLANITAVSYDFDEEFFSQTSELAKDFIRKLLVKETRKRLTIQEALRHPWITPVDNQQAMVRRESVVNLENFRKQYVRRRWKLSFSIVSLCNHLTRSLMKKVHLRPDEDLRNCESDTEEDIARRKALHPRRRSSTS

C[C@@H](c1cccc(C#N)c1)n1cc(Cl)cc(C(N)=O)c1=N [(S)-9s]
inactive: residual activity [1] 71% | residual activity [2] 54% | residual activity [3] 90% | residual activity [4] 86% | residual activity [5] 82% | residual activity [6] 100% | residual activity [7] 99% | residual activity [8] 100% | residual activity [9] 100% | residual activity [10] 100% | residual activity [11] 98% | residual activity [12] 89% | residual activity [13] 84% | inhibition [14] 3.93% | residual activity [15] 56% | residual activity [16] 100% | residual activity [17] 85% | residual activity [18] 88% | residual activity [19] 100% | residual activity [20] 100% | inhibition [21] -3.33% | residual activity [22] 95% | residual activity [23] 100% | residual activity [24] 87% | residual activity [25] 93% | residual activity [26] 98% | residual activity [27] 77% | residual activity [28] 93% | residual activity [29] 79% | residual activity [30] 68% | residual activity [31] 93% | residual activity [32] 93% | residual activity [33] 69% | residual activity [34] 98% | inhibition [35] -9.05% | residual activity [36] 100% | residual activity [37] 68% | residual activity [38] 100% | residual activity [39] 96% | residual activity [40] 91% | residual activity [41] 100% | residual activity [42] 95% | residual activity [43] 100% | residual activity [44] 100% | residual activity [45] 100%

C[C@H](c1cccc(C#N)c1)n1cc(Cl)cc(C(N)=O)c1=N [(R)-9s]
inactive: residual activity [1] 86% | residual activity [2] 55% | residual activity [3] 97% | residual activity [4] 87% | residual activity [5] 96% | residual activity [6] 100% | residual activity [7] 72% | residual activity [8] 96% | residual activity [9] 100% | residual activity [10] 100% | residual activity [11] 100% | residual activity [12] 97% | residual activity [13] 87% | inhibition [14] 9.88% | residual activity [15] 100% | residual activity [16] 100% | residual activity [17] 78% | residual activity [18] 100% | residual activity [19] 100% | residual activity [20] 100% | inhibition [21] -7.87% | residual activity [22] 85% | residual activity [23] 100% | residual activity [24] 100% | residual activity [25] 83% | residual activity [26] 100% | residual activity [27] 80% | residual activity [28] 68% | residual activity [29] 83% | residual activity [30] 88% | residual activity [31] 100% | residual activity [32] 100% | residual activity [33] 74% | residual activity [34] 91% | inhibition [35] -6.96% | residual activity [36] 100% | residual activity [37] 85% | residual activity [38] 100% | residual activity [39] 100% | residual activity [40] 100% | residual activity [41] 100% | residual activity [42] 77% | residual activity [43] 100% | residual activity [44] 100% | residual activity [45] 100%
